The source of these data is ChEMBL document CHEMBL1201862, “PubChem BioAssay data set” (2004).

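Interpolation was linear, between the two tested concentrations surrounding the appropriate level; five concentrations were tested over 48 hours in 96-well plates. GI50 marks 50% less growth.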 Activity calls are given as the source filed them. Cut-off read from the data, not from the text of the source: active = GI50 up to about 1.1 µM and inactive = higher.

Assay in all cases: growth of human tumour cells (NCI), 48 h
Test [1] concerns NCI-H23.
The subject of test [2] is HCT-15.
Test [3] relates to UACC-257.
The subject of test [4] is OVCAR-8.
Test [5] concerns SK-MEL-2.
For test [6], the system named is NCI-H460.
Test [7] concerns SNB-19.
The test system of test [8] is OVCAR-5.
In test [9] the test system is UO-31.
The subject of test [10] is SK-MEL-28.
Test [11] relates to SR.
The subject of test [12] is SF-268.
Test [13] concerns UACC-62.
Test [14] relates to RPMI-8226.
Test [15] concerns SW-620.
Test [16] has as its system HCT-116.
In test [17] the test system is U-251.
Test [18] has as its system A549.
Test [19] concerns OVCAR-3.
Test [20] deals with SF-295.

Turning to `O=C1C[C@H](Sc2ccccc2)C2(OCCO2)[C@H]2ON3CCC[C@@H]3[C@@H]12`, the GI50 is 1.91 µM (inactive) in test [1]; 0.59 µM in [2]; 2.72 µM (inactive) in [3]; 0.918 µM (active) in test [4]; 3.75 µM (inactive) in [5]; 2.92 µM (inactive) in test [6]. Moreover, the GI50 is 5.18 µM (inactive) in test [7]; 3.01 µM (inactive) in [8]; 1.58 µM (inactive) in test [9]; 2.49 µM (inactive) in test [10]; 0.286 µM (active) in [11]; 1.65 µM (inactive) in test [12]. The GI50 in [13] was 1.73 µM (inactive); in [14], 0.306 µM (active); in test [15] it was 0.723 µM (active); in test [16] it was 0.841 µM (active); in [17] it was 1.88 µM (inactive); in test [18], 2.89 µM (inactive). Also, the GI50 was 0.904 µM (active) in test [19] and 3.79 µM (inactive) in test [20].

`O=C(CSc1nc2ccccc2c2ccccc12)c1ccccc1`: the GI50 was > 100 µM (inactive) in test [1]; greater than 100 µM in [2]; > 100 µM (inactive) in test [3]; > 100 µM (inactive) in test [4]; > 100 µM (inactive) in test [5]; > 100 µM (inactive) in test [6]. Also, the GI50 in test [7], in test [8], in test [9], in test [10], in [11] and in test [12] was > 100 µM (inactive) in each case. The GI50 in test [13], in test [14], in test [15], in [16], in test [17] and in test [18] was > 100 µM (inactive) in each case. Moreover, the GI50 in test [19] and in test [20] was > 100 µM (inactive) in each case.

For `CCCSc1ccc2[nH]c(N3C(=O)/C(=C/c4cc(OC)c(OC)c(OC)c4)N=C3c3ccccc3)cc2c1`, the GI50 in test [1] was 10.9 µM (inactive); in test [2] it was 12.2 µM; in [3] it was 13.8 µM (inactive); in [4], 12.6 µM (inactive); in test [5] it was 18.4 µM (inactive); in test [6] it was 12.5 µM (inactive). Further, the GI50 is 0.681 µM (active) in test [7]; 17.7 µM (inactive) in test [8]; 15.1 µM (inactive) in test [9]; 12.9 µM (inactive) in test [10]; 1.66 µM (inactive) in [11]; 11 µM (inactive) in test [12]. Moreover, the GI50 in [13] was 8.61 µM (inactive); in [14] it was 9.18 µM (inactive); in [15] it was 10.9 µM (inactive); in [16] it was 16.5 µM (inactive); in test [17] it was 17.8 µM (inactive); in test [18] it was 0.553 µM (active). The values for the GI50 in test [19] and in test [20] were 9.12 µM (inactive) and 1.25 µM (inactive), respectively.

Regarding `O=S1(=O)CS(=O)(=O)OCCCO1`, the GI50 in test [1] was 68.5 µM (inactive); in test [2], greater than 100 µM; in test [3], > 100 µM (inactive); in test [4], > 100 µM (inactive); in [5] it was > 100 µM (inactive); in [6] it was 27.3 µM (inactive). The GI50 is > 100 µM (inactive) in test [7]; > 100 µM (inactive) in [8]; > 100 µM (inactive) in test [9]; > 100 µM (inactive) in test [10]; 41.2 µM (inactive) in test [11]; > 100 µM (inactive) in [12]. Besides, the GI50 in [13], in test [14], in [15], in [16], in test [17] and in test [18] was > 100 µM (inactive) throughout. Moreover, the GI50 in [19] was > 100 µM (inactive); in [20], 54.1 µM (inactive).

As to `O=C1/C(=C\c2cccc(Oc3ccccc3)c2)SC(c2ccccc2)N1c1cccc([N+](=O)[O-])c1` (stereo not given), the GI50 in test [1] was > 100 µM (inactive); in test [2], greater than 100 µM; in [3], 97.3 µM (inactive); in test [4] it was 35.5 µM (inactive); in test [5], > 100 µM (inactive); in [6], > 100 µM (inactive). Moreover, the GI50 in test [7] is 65.3 µM (inactive); in [8] it was > 100 µM (inactive); in test [9], 96.8 µM (inactive); in [10] it was > 100 µM (inactive); in test [11] it was 32.3 µM (inactive); in test [12] it was > 100 µM (inactive). Moreover, the GI50 is 60.1 µM (inactive) in test [13]; 34.7 µM (inactive) in test [14]; 56.4 µM (inactive) in test [15]; 32.7 µM (inactive) in [16]; 36.7 µM (inactive) in test [17]; > 100 µM (inactive) in test [18]. In addition, the GI50 in test [19] and in test [20] was > 100 µM (inactive) in each case.
